Results taken from ChEMBL document CHEMBL3885881, “DrugMatrix”.

Species on record: Rattus norvegicus
Assay: DrugMatrix - Regimen: Daily Repeat
Type: toxicity, organism-based, Sprague-Dawley
Design: regimen Daily Repeat, gender Male, age 6-8 weeks
Conditions: in vivo, po, route oral GAVAGE, […]; for URIC ACID / ALANINE AMINOTRANSFERASE / ALBUMIN / ALKALINE PHOSPHATASE / ASPARTATE AMINOTRANSFERASE / BLOOD UREA NITROGEN / CARBON DIOXIDE / CHLORIDE / CREATINE PHOSPHOKINASE / CREATININE / GLUCOSE / LACTATE DEHYDROGENASE / LIPASE / PHOSPHORUS / POTASSIUM / SODIUM / TOTAL BILIRUBIN / TOTAL PROTEIN / CHOLESTEROL: tissue Plasma; for ABSOLUTE BASOPHIL / ABSOLUTE EOSINOPHIL / ABSOLUTE LYMPHOCYTE / ABSOLUTE MONOCYTE / ABSOLUTE SEGMENTED NEUTROPHIL / BASOPHIL / EOSINOPHIL / ERYTHROCYTE COUNT / HEMATOCRIT / HEMOGLOBIN / LEUKOCYTE COUNT / LYMPHOCYTE / MEAN CORPUSCULAR HEMOGLOBIN / MEAN CORPUSCULAR HEMOGLOBIN CONCENTRATION / MONOCYTE / NEUTROPHIL / NUCLEATED RED BLOOD CELLS / PLATELET COUNT: tissue Blood
[1] = 250 mg/kg, 120 h, dose level Low, time 5 day
[2] = 2500 mg/kg, 72 h, dose level High, time 3 day
[3] = 2500 mg/kg, 120 h, dose level High, time 5 day

SMILES: Cc1noc(NS(=O)(=O)c2ccc(N)cc2)c1C [SULFISOXAZOLE]
- URIC ACID (250 mg/kg, 72 h, dose level Low, time 3 day): 1.8 mg/dL
- ABSOLUTE BASOPHIL [1]: 0 CELLS/uL
- ABSOLUTE EOSINOPHIL [1]: 0 CELLS/uL
- ABSOLUTE LYMPHOCYTE [1]: 9180.67 CELLS/uL
- ABSOLUTE MONOCYTE [1]: 0 CELLS/uL
- ABSOLUTE SEGMENTED NEUTROPHIL [1]: 986 CELLS/uL
- BASOPHIL [1]: 0%
- EOSINOPHIL [1]: 0%
- ERYTHROCYTE COUNT [1]: 5.62 x10E6/uL
- HEMATOCRIT [1]: 34.93%
- HEMOGLOBIN [1]: 13.27 G/DL
- LEUKOCYTE COUNT [1]: 10.17 x10E3/uL
- LYMPHOCYTE [1]: 90.67%
- MEAN CORPUSCULAR HEMOGLOBIN [1]: 23.63 pg
- MEAN CORPUSCULAR HEMOGLOBIN CONCENTRATION [1]: 38 G/DL
- MONOCYTE [1]: 0%
- NEUTROPHIL [1]: 9.33%
- NUCLEATED RED BLOOD CELLS [1]: 0 /100WBC
- PLATELET COUNT [1]: 1021 x10E3/uL
- ALANINE AMINOTRANSFERASE [1]: 64.33 u/L
- ALBUMIN [1]: 4 G/DL
- ALKALINE PHOSPHATASE [1]: 394 u/L
- ASPARTATE AMINOTRANSFERASE [1]: 103.67 u/L
- BLOOD UREA NITROGEN [1]: 15 mg/dL
- CARBON DIOXIDE [1]: 30.67 mmol/L
- CHLORIDE [1]: 101.67 MEQ/L
- CREATINE PHOSPHOKINASE [1]: 404 u/L
- CREATININE [1]: 0.18 mg/dL
- GLUCOSE [1]: 149.33 mg/dL
- LACTATE DEHYDROGENASE [1]: 127.33 u/L
- LIPASE [1]: 11 u/L
- PHOSPHORUS [1]: 10.7 mg/dL
- POTASSIUM [1]: 5.9 MEQ/L
- SODIUM [1]: 143.87 MEQ/L
- TOTAL BILIRUBIN [1]: 0.17 mg/dL
- TOTAL PROTEIN [1]: 5.9 G/DL
- URIC ACID [1]: 1 mg/dL
- ABSOLUTE BASOPHIL [2]: 0 CELLS/uL
- ABSOLUTE EOSINOPHIL [2]: 133 CELLS/uL
- ABSOLUTE LYMPHOCYTE [2]: 8008.67 CELLS/uL
- ABSOLUTE MONOCYTE [2]: 152 CELLS/uL
- ABSOLUTE SEGMENTED NEUTROPHIL [2]: 3173 CELLS/uL
- BASOPHIL [2]: 0%
- EOSINOPHIL [2]: 1%
- ERYTHROCYTE COUNT [2]: 4.62 x10E6/uL
- HEMATOCRIT [2]: 28.6%
- HEMOGLOBIN [2]: 11.27 G/DL
- LEUKOCYTE COUNT [2]: 11.47 x10E3/uL
- LYMPHOCYTE [2]: 67%
- MEAN CORPUSCULAR HEMOGLOBIN [2]: 24.33 pg
- MEAN CORPUSCULAR HEMOGLOBIN CONCENTRATION [2]: 39.47 G/DL
- MONOCYTE [2]: 1%
- NEUTROPHIL [2]: 31%
- NUCLEATED RED BLOOD CELLS [2]: 0 /100WBC
- PLATELET COUNT [2]: 1118.33 x10E3/uL
- ALANINE AMINOTRANSFERASE [2]: 65.33 u/L
- ALBUMIN [2]: 4 G/DL
- ALKALINE PHOSPHATASE [2]: 312 u/L
- ASPARTATE AMINOTRANSFERASE [2]: 109.67 u/L
- BLOOD UREA NITROGEN [2]: 13.67 mg/dL
- CARBON DIOXIDE [2]: 24.67 mmol/L
- CHLORIDE [2]: 98.33 MEQ/L
- CHOLESTEROL [2]: 78.33 mg/dL
- CREATINE PHOSPHOKINASE [2]: 1633.33 u/L
- CREATININE [2]: 0.24 mg/dL
- GLUCOSE [2]: 172.33 mg/dL
- LACTATE DEHYDROGENASE [2]: 198.67 u/L
- LIPASE [2]: 10.67 u/L
- PHOSPHORUS [2]: 11.6 mg/dL
- POTASSIUM [2]: 4.69 MEQ/L
- SODIUM [2]: 140.23 MEQ/L
- TOTAL BILIRUBIN [2]: 0.0667 mg/dL
- TOTAL PROTEIN [2]: 6.13 G/DL
- URIC ACID [2]: 1.5 mg/dL
- ABSOLUTE BASOPHIL [3]: 0 CELLS/uL
- ABSOLUTE EOSINOPHIL [3]: 0 CELLS/uL
- ABSOLUTE LYMPHOCYTE [3]: 10533.67 CELLS/uL
- ABSOLUTE MONOCYTE [3]: 131 CELLS/uL
- ABSOLUTE SEGMENTED NEUTROPHIL [3]: 502 CELLS/uL
- BASOPHIL [3]: 0%
- EOSINOPHIL [3]: 0%
- ERYTHROCYTE COUNT [3]: 5.59 x10E6/uL
- HEMATOCRIT [3]: 35.7%
- HEMOGLOBIN [3]: 13.8 G/DL
- LEUKOCYTE COUNT [3]: 11.17 x10E3/uL
- LYMPHOCYTE [3]: 94.33%
- MEAN CORPUSCULAR HEMOGLOBIN [3]: 24.7 pg
- MEAN CORPUSCULAR HEMOGLOBIN CONCENTRATION [3]: 38.63 G/DL
- MONOCYTE [3]: 1%
- NEUTROPHIL [3]: 4.67%
- NUCLEATED RED BLOOD CELLS [3]: 0 /100WBC
- PLATELET COUNT [3]: 1151.33 x10E3/uL
- ALANINE AMINOTRANSFERASE [3]: 87.67 u/L
- ALBUMIN [3]: 4.17 G/DL
- ALKALINE PHOSPHATASE [3]: 442.67 u/L
- ASPARTATE AMINOTRANSFERASE [3]: 84.33 u/L
- BLOOD UREA NITROGEN [3]: 19.33 mg/dL
- CARBON DIOXIDE [3]: 31 mmol/L
- CHLORIDE [3]: 101.67 MEQ/L
- CHOLESTEROL [3]: 73.33 mg/dL
- CREATINE PHOSPHOKINASE [3]: 296.67 u/L
- CREATININE [3]: 0.23 mg/dL
- GLUCOSE [3]: 139 mg/dL
- LACTATE DEHYDROGENASE [3]: 98 u/L
- LIPASE [3]: 11 u/L
- PHOSPHORUS [3]: 9.13 mg/dL
- POTASSIUM [3]: 5.93 MEQ/L
- SODIUM [3]: 145.57 MEQ/L
- TOTAL BILIRUBIN [3]: 0.1 mg/dL
- TOTAL PROTEIN [3]: 6.3 G/DL
- URIC ACID [3]: 0.97 mg/dL
